Converted amounts (≈) assume the structure as drawn. Where two headings read alike, the source gives them in different places.
Columns and labels:
[1] = system: human ApoA-I promoter; assay: ApoA-I promoter induction in Caco-2 intestinal cells (pAI.474-Luc luciferase reporter); assay type: cell-based; details: Caco-2 cells, 15 μM, 48 hours incubation, luciferase activity vs control samples
How it was run: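 Caco-2 cells stably carrying the human ApoA-I promoter–firefly luciferase construct (pAI.474-Luc) were starved 24 h in 0.5% FBS medium, then exposed to compound at 0 to 100 μM final for 48 h at 37° C. Luciferase activity in lysates was normalized to Bradford protein and compared with solvent-only and untreated controls.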

[2] = Solubility analysis in PBS (HPLC-UV); assay type: physicochemical; details: aqueous buffer, thermodynamic from solid; 1 mg in 1 mL PBS, sonicated 1 hour, 25° C. for 3 hrs
Procedure: Samples were then centrifuged at 14,000 rpm for 6 minutes at room temperature. The supernatant was diluted with acetonitrile and was removed for analysis. Analysis was performed using HPLC-UV with 7-point standard curve to determine the concentration. The average concentration calculated is regarded as the solubility (μM).

[3] = Caco-2 permeability; assay type: in vitro ADME, human; details: human, Caco-2
Description: (§1) The Caco-2 cell drug transport model is widely used for screening compounds in drug discovery to assess intestinal transport and predict absorption rates.

[4] = system: hApoA-I transgenic mice; assay: hApoA-I transgenic mice, oral gavage for 14 days; assay type: in vivo; details: for change in vivo at 10 mg/kg: Mus musculus, po, 336 h, 10 mg/kg BID 14 days, relative to pretreatment, read-out: ApoA-I (% change)
Description: To test whether the efficacy of compounds of the invention observed in vitro extended to an in vivo model, transgenic mice carrying multiple copies of the human ApoA-I gene (C57BI/6-tgn(apoa1)1 rub, Jackson Laboratory, Bar Harbor, Me.) were exposed to representative compounds of the invention. The exogenous human ApoA-I gene in these mice enables them to express the human ApoA-I protein under the control of this promoter.
Seven to eight week old male mice, transgenic for human ApoA-I were housed five per cage (10″×20″×8″ with aspen chip bedding) with pelleted Rodent chow [Purina 5001] and water available at all times. After an acclimation period of 1 week, animals were individually identified by numbering on tail and weighed. Mice were pre bled via the retro-orbital plexus, and 150 μl of blood was collected in 1.5 ml Eppendorf tube containing 1 μl of heparin and chilled on ice. Plasma was collected after centrifuging the whole blood at 14000 rpm [TOMY high speed micro-refrigerated centrifuge NTX-150] for 10 minutes at 4° C. and frozen at −80° C. Plasma was analyzed for: human ApoA-I by a human ApoA-I enzyme-linked Immunoassay [Direct Sandwich ELISA Calbiochem Cat#178422, Calbiochem Cat#178452, lot #B9076, Calbiochem Cat #178470 conjugated to Horse Radish Peroxidase (Cedarlane Cat#80220)]; total cholesterol [Ponte scientific reagents: # C7509-STD, #L7580-18, # C7510]; and triglyceride [Pointe Scientific Reagents: # 7532-STD, # L7580-18, #7532]. All samples were measured in triplicates and expressed as mg/dl. Mice were grouped based on the above plasma parameters and having an average body weight of 25 gm.
Two days following pre-bleed, mice were dosed by oral gavage daily for 14 days using a 20 gauge, 11/2″ curved disposable feeding needle [Popper & Sons]; when BID, mice were gavaged morning and afternoon (8 am and 5 pm); when SID mice were gavaged in morning (8 am). Compounds were prepared each day in vehicle. Test article(s), a positive control fenofibrate, and vehicle were dosed at volume of 5 mL/kg of body weight as a suspension (0.1 mL/20 g mouse). Fenofibrate was obtained commercially [SIGMA #F 6020]. Mice weights were recorded on day 1, 4, 7, 10, 12, and 15. On day 15, mice were weighed and fasted for 4 hours, sacrificed by inhalation of CO2 and blood was obtained via cardiac puncture (0.7-1.0 ml). Plasma was collected and frozen at −80° C. Samples were assayed for ApoA-I, total cholesterol, triglyceride and HDL-C by HPLC [Polaris 200 with an auto sampler Prostar 410 from Varian on a Superose 6 10/30 column from Amersham]. Samples were sent for NMR analysis [LipoScience] to identify particle size and subclass for lipoproteins. During necropsy, liver, brown fat, and the whole of small and large intestines were collected, cleaned with cold PBS and frozen at −80° C. for further analysis of compound levels. Variation between studies, in ApoA-I changes, was observed. Therefore, a relative comparison between individual(s) in the study groups was used.
4′-hydroxyflavone (10 mg/kg of body weight), 4-(4-oxo-4H-chromen-2-yl)phenyl nicotinate (Example 71) (10 mg/kg of body weight) and fenofibrate (100 mg/kg of body weight) were BID administered to hApoA-I transgenic mice daily for fourteen days by oral gavage in 0.5% Methylcellulose (w/v)/1% Tween 80 (w/v). Plasma was assayed for ApoA-I (FIG. 3A), HDL cholesterol and total cholesterol (FIG. 3B) and percent weight gain (FIG. 3C).
4′-hydroxyflavone (3 mg/kg of body weight), 4′-hydroxyflavone (10 mg/kg of body weight), 4′-hydroxyflavone (30 mg/kg of body weight), 2-(4-Hydroxy-phenyl)-pyrano[2,3-b]pyridin-4-one (10 mg/kg of body weight), and fenofibrate (100 mg/kg of body weight) were BID administered to hApoA-I transgenic mice daily for fourteen days by oral gavage in 0.5% methylcellulose (w/v)/1% Tween 80 (w/v). In this experiment plasma was assayed for ApoA-I. […]

[5] = system: ApoA-I protein; assay: ApoA-I protein expression in HepG2 cells (ELISA of conditioned media); assay type: cell-based, human; details: 7.5 μM; for ApoA-I content in the medium (ELISA): 6 and 24 hours, vs untreated cells and cells treated with solvent; for time after addition of compound at which ApoA-I levels in the medium start to increase: time course 0, 6, 24 hours
Procedure: This study confirmed that compounds of the invention have an effect on ApoA-I protein secretion in HepG2 (liver) cells by measuring whether stimulation of transcriptional activity of the endogenous ApoA-I promoter in the HepG2 cells increased the abundance and secretion of ApoA-I protein.
The HepG2 cell line was obtained from the ATCC and cultured in MEM media supplemented with 10% FBS (Gibco), with 1 mM sodium pyruvate, 0.1 mM MEM non-essential amino acid, 2 mM L-glutamine, 100 U/ml penicillin, 100 μg/ml streptomycin and 5 μg/ml plasmocin. Cells were maintained at 37° C. in an atmosphere of 5% CO2 Cells were grown to 85% confluency prior to initiating the experiment.
Cells were plated and allowed to adhere overnight in a phenol red-free DMEM containing 10% of Charcoal/Dextran treated FBS (Hyclone), with 1 mM sodium pyruvate, 0.1 mM MEM non-essential amino acid, 2 mM L-glutamine, 100 U/ml penicillin, 100 μg/ml streptomycin and 5 μg/ml plasmocin. The medium was removed, and cells were washed in 1×PBS. Cells were then starved in phenol red-free DMEM (serum free) for a period of 24 hours. Cells were then mock treated (untreated, DMSO), or treated with compound of the invention diluted in phenol red-free DMEM (serum free) media at a concentration of 7.5 μM. Cells and media were harvested at 0, 6 and 24 hours following compound treatment.
Medium was removed from cells at the desired times and applied to a solid phase capture sandwich in an ELISA assay according to manufacturer's instructions (Total human Apolipoprotein ELISA Assay-Alercheck).

[6] = subjects with low HDL-C; Rubins et al. 1999; cited from earlier work
[7] = system: human ApoA-I promoter; assay: ApoA-I promoter induction in HepG2 liver cells (pAI.474-Luc luciferase reporter); assay type: cell-based; details: average values at 15 μM, 48 hours incubation
Procedure: This study determined whether compounds of the invention have an effect on ApoA-I promoter activity expression in HepG2 cells, a liver cell line. Cells were grown under conditions recommended by the ATCC and summarized by Wong.
The promoter region of the gene encoding human ApoA-I was isolated and ligated upstream the structure gene of firefly luciferase to construct a reporter plasmid (pAI.474-Luc). The reporter plasmid, along with pRSV-β-galactosidase (as a control for transfection efficiency), were co-transfected into HepG2 cells. The cells were then incubated in an MEM selection media containing 20% fetal calf serum supplemented with G418 (final concentration: 0.5 mg/mL, Gibco) to give established strains that stably express from the reporter gene. The strains were seeded to a 6-well culture plates and incubated for 48 hours at 37° C. under 5% carbon dioxide. Cells were starved for 24 hrs in MEM selection media containing 0.5% FBS. Then, a solution of the compounds of the invention in DMSO (or other appropriate solvent) was added to the wells at a final concentration of 0 to 100 μM in MEM selection media containing 0.5% FBS.
After further incubation for 48 hours, the cells were harvested and lysed using Reporter Lysis Buffer (PROMEGA E3971), and 50 μL of luciferase assay reagent (PROMEGA E4550 Luciferase Reporter 1000 assay system) were added to measure luciferase activity with a luminometer (Fluoroskan Ascent FL from Thermo electron Corporation). Luciferase activity was normalized to lysate protein concentrations, measured using Bradford Reagent (Biorad Protein Assay reagent Cat #500-0006).

[8] = system: Caco-2 cells; assay: Caco-2 permeability; assay type: in vitro ADME, human; details: in vitro Caco-2 intestinal transport model
Description: as §1

[9] = system: human ApoA-I promoter; assay: Kinetics of ApoA-I promoter induction in Caco-2 cells transfected with pAI.474-Luc; assay type: cell-based; details: time points from 4 to 72 hours
Procedure: Accordingly, the kinetics of induction of the ApoA-I promoter were assessed.
Caco-2 cells transfected with pAI.474-Luc were treated with compounds of the invention at selected time points varying from 4 to 72 hours. This construct pAI.474-Luc contained the human ApoA-I promoter fused to the reporter gene, firefly luciferase (Luc).
Further, maximal stimulation appeared following 48 hour exposure. […] Maximal stimulation appeared following 48 hour exposure to the compound.

[10] = Table 6 fourth group, Control 3 1.11

Structure (SMILES) | solubility at 3 h [2] | Papp [3] | melting point | ApoA-I Promoter Induction [1] | also measured
O=c1cc(-c2ccc(O)c(F)c2)oc2ncccc12 [Example 37, 2-(3-fluoro-4-hydroxyphenyl)pyrano[2,3-b]pyridine-4-one] | 194 µM (≈ 50 µg/mL) | 2.06 ×10⁻⁶ cm/s | 267 to 268 °C | increased | change in vivo at 10 mg/kg ([4]; Table 6 second group, Control 1 3.42): 14.4%
Oc1ccc(-c2cc3ncccc3cn2)cc1 [Example 57, 4-(1,6-naphthyridin-7-yl)phenol] | – | 5.34 ×10⁻⁶ cm/s | 219 to 221 °C | increased | ApoA-I content in the medium (ELISA) [5]: increased significantly; time after addition of compound at which ApoA-I levels in the medium start to increase [5]: ~6 h; change in vivo at 10 mg/kg [4, 10]: 9.49%
Cc1c(-c2ccc(O)cc2)oc2ccccc2c1=O [Example 24, 2-(4-hydroxyphenyl)-3-methyl-4H-chromen-4-one] | – | – | 241 to 242 °C | – | ApoA-I content in the medium (ELISA) [5]: increased significantly; time after addition of compound at which ApoA-I levels in the medium start to increase [5]: ~6 h
Cc1ccc(C)c(OCCCC(C)(C)C(=O)O)c1 [gemfibrozil] | – | – | – | – | increase in the HDL-C level [6]: 6%; reduction of the CHD risk [6]: 22%
O=c1cc(-c2ccc(O)c(Cl)c2)oc2ncccc12 [Example 41, 2-(3-chloro-4-hydroxyphenyl)-4H-pyrano[2,3-b]pyridine-4-one] | 84.4 µM (≈ 23.1 µg/mL) | 1.76 ×10⁻⁶ cm/s | 259 to 262 °C | increased | –
O=c1cc(-c2ccc(O)cc2)oc2cc(O)cc(O)c12 [5,7-dihydroxy-2-(4-hydroxyphenyl)-4H-chomen-4-one] [reference compound] | – | – | – | – | ApoA-I Promoter Induction [7]: increased; % Transported Paap [8]: 1.5 ×10⁻⁶ cm/s
O=c1cc(-c2ccc(O)cc2)oc2cc(O)cc(O)c12 [5,7-Dihydroxy-2-(4-hydroxy-phenyl)-chromen-4-one, reference compound] | – | – | – | increased | exposure time of maximal stimulation of ApoA-I promoter activity [9]: 48 h

The next lines start with results.

solubility at 3 h [2] | Papp [3] | melting point | Structure (SMILES) | ApoA-I Promoter Induction [1] | also measured
44.9 µM (≈ 10.7 µg/mL) | 1.76 ×10⁻⁶ cm/s | 239 to 241 °C | O=c1[nH]c(-c2ccc(O)cc2)cc2ccccc12 [Example 53, 3-(4-hydroxyphenyl)-2H-isoquinolin-1-one] | increased | ApoA-I Promoter Induction [7]: increased; change in vivo at 10 mg/kg [4, 10]: 13.2%
31.6 µM (≈ 7.56 µg/mL) | 1.21 ×10⁻⁶ cm/s | 306 to 308 °C | O=c1cc(-c2ccc(O)cc2)oc2ccncc12 [Example 39, 2-(4-hydroxyphenyl)-4H-pyrano[3,2-c]pyridine-4-one] | increased | change in vivo at 10 mg/kg [4, 10]: 11.2%
5.04 µM (≈ 1.2 µg/mL) | 4.31 ×10⁻⁶ cm/s | – | O=c1cc(-c2ccc(O)cc2)oc2ccccc12 [4′-hydroxyflavone, reference compound] | – | exposure time of maximal stimulation of ApoA-I promoter activity [9]: 48 h; ApoA-I Promoter Induction [7]: increased; plasma ApoA-I, net % change over vehicle ([4]; Experiment A, 10 mg/kg BID oral gavage, 14 days, 0.5% methylcellulose/1% Tween 80): 32.44%; HDL cholesterol, net % change ([4]; Experiment A, 10 mg/kg BID oral gavage, two weeks, NMR lipoprotein profile): 12.6%; liver weight gain normalized to body weight, compared to vehicle ([4]; Experiment A, 10 mg/kg BID, day 15, male mice): minor changes; change in ApoA-I over vehicle ([4]; Experiment B, 3 and 30 mpk BID oral gavage, 14 days): lack of statistically significant change; plasma ApoA-I, net % change over vehicle ([4]; Experiment B, 10 mpk BID oral gavage, two weeks): 31.24%
– | – | 269 to 270 °C | COc1ccc(-c2cc(=O)c3cccnc3o2)cc1 [Example 44, 2-(4-methoxyphenyl)-4H-pyrano[2,3-b]pyridine-4-one] | increased | ApoA-I content in the medium (ELISA) [5]: increased significantly; time after addition of compound at which ApoA-I levels in the medium start to increase [5]: ~6 h

Reference: patent US8093273B2, “Flavanoids and isoflavanoids for the prevention and treatment of cardiovascular diseases” (Resverlogix Corp., priority 2004, dated 2012)
